Here are results for 77 compounds from the RepoRT retention time repository (doi:10.1021/acs.analchem.1c00972).

This data set is described as follows: RP, Waters ACQUITY UPLC BEH C18, 100 × 1 mm, 1.7 µm, 50 °C, 0.3 mL/min, estimated dead time 0.17 min; A: water + 0.1% formic acid + 20 mM ammonium formate; B: methanol + 0.1% formic acid + 20 mM ammonium formate; gradient (min/%B) 0/0 15/100 21/100 22/0 30/0. The settings on record: stereoisomer not certain.
In the case of `CC(C)NC(=O)NC(C)C` [1.3-Diisopropylurea], the LC retention time was 8.54 min.
The figure for `Cc1cccc(C)c1N(Cn1cccn1)C(=O)C(=O)O` [Metazachlor BH 479-4 (Metazachlor oxanilic acid (OA))] is 9.29 min.
Take `N[C@@H](Cc1ccc(O)cc1)C(=O)O` [L-Tyrosine]: the LC retention time is 6.5 min.
Under `Cc1cccc(O)c1` [3-Methylphenol] stands 14.3 min; under `CCCCCC(=O)OC1(C(C)=O)CCC2C3CCC4=CC(=O)CCC4C3CCC21C` (configuration not stated) [Gestonorone capronate], 16.7 min; under `CC12C=CC(=O)C=C1CCC1C2C(O)CC2(C)C1CCC2(O)C(=O)CO` (configuration not stated) [Prednisolone], 12.4 min.
The figure for `CC(=O)OC1C(=O)C2(C)C(O)CC3OCC3(OC(C)=O)C2C(OC(=O)c2ccccc2)C2(O)CC(OC(=O)C(O)C(NC(=O)c3ccccc3)c3ccccc3)C(C)=C1C2(C)C` (configuration not stated) [Taxol] is 15 min.
Under `COP(=S)(NC(C)C)Oc1ccccc1C(=O)OC(C)C` (configuration not stated) [Isofenphos-methyl] stands 15.5 min; under `Cc1cnc(NC(=O)C2=C(O)c3ccccc3S(=O)(=O)N2C)s1` [meloxicam], 13.3 min; under `Cc1cc(C(F)(C(F)(F)F)C(F)(F)F)ccc1NC(=O)c1cccc(I)c1C(=O)NC(C)(C)CS(C)(=O)=O` [Flubendiamide], 15.4 min.
On to `CC(=O)Oc1ccccc1C(=O)O` [Acetylsalicyls<e4>ure], for which the LC retention time was 16.5 min.
In the case of `COc1cc(OC)nc(NC(=O)NS(=O)(=O)c2ncccc2C(F)(F)F)n1` [Flazasulfuron], the LC retention time is 13.4 min.
For `NC(=O)N=C1SCCN1Cc1ccc(Cl)nc1` [Thiacloprid amide], the LC retention time was 8.82 min.
As for `COc1ccc2[nH]cc(CCNC(C)=O)c2c1` [Melatonin], the LC retention time is 9.71 min.
Under `NC(=O)Cc1c[nH]c2ccccc12` [indoleacetamide] stands 8 min; under `CC=C(C)C(=O)OC1CC[N+]2([O-])CC=C(COC(=O)C(O)(C(C)O)C(C)(C)O)C12` (configuration not stated) [Echimidine N-oxide], 9.37 min; under `CCCCCCCCCCCCCCCC(=O)NCCO` [Palmitoylethanolamide], 18.4 min.
The figure for `Nc1ccc(F)cc1` [Picolinafen-Fluoroaniline] is 2.59 min; for `NCCc1c[nH]c2ccccc12` [tryptamine] it is 7 min.
Under `CCCCC(CC)COC(=O)C=Cc1ccc(OC)cc1` (configuration not stated) [Octyl-methoxycinnamate] stands 18.2 min.
As for `CCNC(=O)NC(=O)C(C#N)=NOC` [Cymoxanil], the LC retention time is 9.68 min.
The figure for `COc1ccc2c3c1OC1C(OC4OC(C(=O)O)C(O)C(O)C4O)C=CC4C(C2)N(C)CCC341` (configuration not stated) [codeine-6-glucuronide] is 11.4 min; for `COc1c2ccoc2c(OC)c2oc(=O)ccc12` [Isopimpinellin] it is 12.2 min.
Regarding `O=[P+](c1ccccc1)c1ccccc1` [Diphenylphosphine oxide], the LC retention time is 11.8 min.
On to `CCC(C(=O)O)C1CCC(C)C(C(C)C(O)C(C)C(=O)C(CC)C2OC3(C=CC(O)C4(CCC(C)(C5CCC(O)(CC)C(C)O5)O4)O3)C(C)CC2C)O1` (configuration not stated) [Salinomycin], for which the LC retention time is 18.4 min.
Under `CCOCN(C(=O)CS(=O)(=O)O)c1c(C)cccc1CC` [Acetochlor ESA] stands 11.9 min; under `O=P1(N(CCCl)CCCl)NCCCO1` (configuration not stated) [Cyclophosphamide], 10.7 min; under `CCOP(=S)(OCC)SCCS(=O)CC` (configuration not stated) [Disulfoton-sulfoxide], 12.7 min.
Take `CC(C)(C)c1cc(-n2nc3ccc(Cl)cc3n2)c(O)c(C(C)(C)C)c1` [UV-327]: the LC retention time was 10.2 min.
The figure for `CNC(=O)ON=C(SC)C(=O)N(C)C` [Oxamyl] is 7.21 min.
Under `CCCCCCCCCCCCCCCCCC(=O)OCC(O)CO` (configuration not stated) [Glyceryl monostearate] stands 19.2 min.
For `CCN(CC)C(=O)Nc1ccc(OCC(O)CNC(C)(C)C)c(C(C)=O)c1` (configuration not stated) [Celiprolol], the LC retention time was 9.97 min.
Under `O=c1c(O)c(-c2ccc(O)c(O)c2)oc2cc(O)cc(O)c12` [Quercetin] stands 11.4 min.
Under `CCOc1ccccc1C(N)=O` [2-Ethoxybenzamide] stands 10.1 min; under `CC(Cc1ccc(C(C)(C)C)cc1)CN1CCCCC1` (configuration not stated) [Fenpropidin], 13.8 min.
The figure for `CN(C)CCC=C1c2ccccc2COc2ccc(CC(=O)O)cc21` [Olopatadine] is 11.5 min; for `Nc1ccc(Cl)c(Cl)c1` [3,4-Dichloroaniline] it is 17.6 min; for `Cc1ccccc1OP(=O)(Oc1ccccc1C)Oc1ccccc1C` [Tris(2-methylphenyl) phosphate (tri-o-cresyl phosphate)] it is 17 min.
In the case of `CN(C)C(=O)Nc1ccc(-n2nc(C(C)(C)C)oc2=O)c(Cl)c1` [Dimefuron], the LC retention time is 13.6 min.
Consider `CN(C)c1ccccc1` [N,N-Dimethylaniline], for which the LC retention time is 2.5 min.
`CCCCCCCCc1ccc(O)cc1` [4-n-Octylphenol]: the LC retention time was 16.9 min.
Turning to `CCCCN1CCCCC1C(=O)Nc1c(C)cccc1C` (configuration not stated) [Bupivacaine], the LC retention time is 10.6 min.
The figure for `CC1CN(C2CCCCCCCCCCC2)CC(C)O1` (configuration not stated) [Dodemorph] is 13.5 min.
The figure for `CCCCC(O)(Cn1cncn1)c1ccc(Cl)cc1Cl` (configuration not stated) [Hexaconazole] is 15.9 min.
As for `OCCc1cccc(O)c1` [2-(3-Hydroxyphenyl)ethanol], the LC retention time is 2.8 min.
Under `CCCCCCCCC=CCCCCCCCCCCCC(N)=O` [Erucamide] stands 19.6 min; under `O=P(O)(O)CCCl` [Ethephon], 2.01 min; under `NS(=O)(=O)c1cc2c(cc1Cl)NC=NS2(=O)=O` [Chlorthiazide], 4.7 min.
Consider `O=C1CCCCCCCCCCCN1` [Dodecane-12-lactam], for which the LC retention time was 14 min.
In the case of `Nc1ccc(C=Cc2ccc(N)cc2S(=O)(=O)O)c(S(=O)(=O)O)c1` [4,4'-Diaminostilbene-2,2'-disulfonic acid], the LC retention time was 9.71 min.
The figure for `O=C1C(Cl)C(CCl)CN1c1cccc(C(F)(F)F)c1` (configuration not stated) [Flurochloridone] is 14.6 min; for `Cc1cccc(C)c1NC(=O)CCl` [Metazachlor-N-dealkylation] it is 10.2 min.
Turning to `CCOC(=O)C1CC(=O)C(=C(O)C2CC2)C(=O)C1` (configuration not stated) [Trinexapac-ethyl], the LC retention time is 13.2 min.
For the compound `NC(Cc1ccccc1)C(=O)N1CCCC1C(=O)O` (configuration not stated) [Phe-Pro], the LC retention time is 8.7 min.
Under `N#CCCCCC#N` [Adiponitrile] stands 5.21 min.
Consider `O=C(NC1CCCCC1)NC1CCCCC1` [Dicyclohexylurea], for which the LC retention time is 14 min.
`CCC(C)n1c(=O)[nH]c(C)c(Br)c1=O` (configuration not stated) [Bromacil]: the LC retention time is 11.5 min.
In the case of `CCCCCCCCCCCCOC(=O)c1ccccc1C(=O)OCCCCCCCCCCCC` [Didodecylphthalate], the LC retention time is 21.7 min.
Under `CCNc1nc(Cl)nc(NC(C)(C)C#N)n1` [Cyanazin] stands 11.3 min.
Take `CN(C)c1nc2c(ncn2C2OC(CO)C(O)C2O)c(=O)[nH]1` (configuration not stated) [N2_N2-Dimethylguanosine]: the LC retention time was 6.3 min.
Consider `CC(C)CCCC(C)C1CCC2C3CC=C4CC(O)CCC4(C)C3CCC12C` (configuration not stated) [Cholesterol], for which the LC retention time is 21.4 min.
Under `Cc1cc2n[nH]nc2cc1C` [5,6-Dimethyl-1,1,1-benzotriazol] stands 11.2 min.
`Nc1cc(Cl)c(S(N)(=O)=O)cc1S(N)(=O)=O` [4-Amino-6-chloro-1,3-benzenedisulfonamide]: the LC retention time was 3.6 min.
Under `CCCCCCOC(=O)c1ccccc1C(=O)OCCCCCC` [Dihexylphthalate] stands 18.2 min.
The figure for `CC(C)(C)c1ccc(CCOc2ncnc3ccccc23)cc1` [Fenazaquin] is 17.8 min; for `CC(C)=CCc1c(O)cc(O)c2c1OC(c1ccc(O)cc1)CC2=O` (configuration not stated) [8-Prenylnaringenin] it is 14.5 min; for `CC(CCC(=O)O)C1CCC2C3CCC4CC(O)CCC4(C)C3CC(O)C12C` (configuration not stated) [Deoxycholic acid] it is 17.1 min.
Under `CCOP(=O)(OCC)Oc1nc(Cl)c(Cl)cc1Cl` [Chlorpyrifos-oxon] stands 15.2 min; under `CCCCC(CC)COP(=O)(OCC(CC)CCCC)OCC(CC)CCCC` (configuration not stated) [Tris(2-Ethylhexyl) phosphate], 19.9 min; under `CC(=O)OC1C(=O)C2(C)C(O)CC3OCC3(OC(C)=O)C2C(OC(=O)c2ccccc2)C2(O)CC(O)C(C)=C1C2(C)C` (configuration not stated) [Baccatin III], 12.5 min.
Take `COC1CC(OC2C(C)OC(OC3C(C)=CCC4CC(CC5(CCC(C)C(C(C)C)O5)O4)OC(=O)C4C=C(C)C(O)C5OCC(=CC=CC3C)C45O)CC2OC)OC(C)C1O` (configuration not stated) [Ivermectin B1b]: the LC retention time was 5.5 min.
As for `CNC(=O)Oc1cc(C)c(S(C)=O)c(C)c1` (configuration not stated) [Methiocarb-sulfoxide], the LC retention time was 9.18 min.
Regarding `Nc1ccc2nc3c(N)cccc3nc2c1` [1,7-Diaminophenazine], the LC retention time is 8.24 min.
With `CC(C)c1ccc(N)cc1` [4-Isopropylaniline], the LC retention time was 9.8 min.
The figure for `CC(=NC#N)N(C)Cc1ccc(Cl)nc1` [Acetamiprid] is 9.33 min; for `CCOP(=S)(NC(C)C)Oc1ccccc1C(=O)OC(C)C` (configuration not stated) [Isofenphos (-ethyl)] it is 16 min; for `O=C(O)c1cccc(C(=O)O)c1` [Isophthalic acid] it is 8.71 min.
